The results in this text go back to patent US12343319B2, “Compositions and methods for treatment of diseases and disorders” (Atai Therapeutics Inc., priority 2023, dated 2025).

“Also recorded” adds a separate entry of the source. Where two headings read alike, the source gives them in different places.

By IC50 is commonly meant the concentration at which inhibition is half-maximal. Read a low IC50 as greater potency. As usually defined, the Ki is a dissociation constant, usually derived from enzyme kinetics or from competition with a known ligand. A high value points to a looser hold on the target.

One data set addresses T1, 5-HT2B (Homo sapiens, UniProt P41595).
T1 construct: expressed in transfected cells
The data set is described as follows: Radioligand binding, 5-HT2B. Conditions: for Max % inhibition: radioligand binding, human 5-HT2B.

The target in the next data set is 5-HT2A receptor (Mus musculus, UniProt P35363). The data set is described as follows: 5-HT2A receptor binding in mouse frontal cortical tissue.
Chain of 5-HT2A receptor (P35363 whole entry): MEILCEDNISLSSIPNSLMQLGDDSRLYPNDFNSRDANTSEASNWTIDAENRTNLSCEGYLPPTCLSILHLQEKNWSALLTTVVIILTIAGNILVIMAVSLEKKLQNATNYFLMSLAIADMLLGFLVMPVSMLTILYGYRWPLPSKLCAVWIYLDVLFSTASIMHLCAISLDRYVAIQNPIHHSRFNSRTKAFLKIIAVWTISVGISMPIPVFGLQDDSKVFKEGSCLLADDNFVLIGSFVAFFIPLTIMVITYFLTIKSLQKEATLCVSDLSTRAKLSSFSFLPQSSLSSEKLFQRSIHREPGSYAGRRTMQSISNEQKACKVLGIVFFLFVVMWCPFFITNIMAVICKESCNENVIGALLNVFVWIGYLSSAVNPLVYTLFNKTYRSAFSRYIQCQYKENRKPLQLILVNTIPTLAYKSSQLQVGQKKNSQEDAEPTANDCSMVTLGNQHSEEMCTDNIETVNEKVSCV
The nature of data set [1]: Terminal plasma and brain concentrations in mice. Format: in vivo. Conditions: C57BL/6J, mouse, intraperitoneal. The method, then:
Prior to the onset of procedures, animals were weighed and allocated into 5 groups by a statistician based on body weight. Animals sharing a cage were dosed with the same drug treatments to avoid cross contamination between groups. Animals were dosed intraperitoneally with psilocybin (3 mg/kg), or one of 3 doses of compound 2-2 (1 mg/kg, 3 mg/kg, 10 mg/kg). Dosing was to a timed scheduled. Animals were weighed prior to dosing and the body weight recorded. Food and water intake were not monitored. The animals were dosed at time “0” and then returned to the home cage. Behaviors of note after dosing were recorded. Each animal was humanely killed (by exposure to increasing CO2 concentration and confirmation of death by cervical dislocation) to allow terminal blood sampling to take place 15 minutes after dosing. The brain sampling was performed immediately after blood sampling was completed for each animal.
Post-mortem blood samples (approx. 0.5 ml) were collected from all animals by cardiac puncture for DMPK analysis, dispensed into a LH-coated tube. The blood samples were gently inverted, centrifuged promptly (2400 g for 5 minutes at 4° C.) and 150 μl of plasma from each animal was placed into a 96-well plate. Plasma samples from group B were stabilized with DTT (50 mM; 1:10). All plasma samples were frozen on dry ice and stored at approximately −80° C. prior to analysis. Whole brains were removed from all animals, rinsed briefly with saline and blot dried. The left and right frontal cortices (˜25 mg each frontal cortex) were dissected separately from the brain, weighed, placed in microtubes, frozen on dry ice and stored at −20° C. to measure receptor occupancy. The remaining brain tissue was weighed, placed in homogenization tubes, frozen on dry ice, and stored at −80° C. prior to transferring (on dry ice) to Signature DMPK with the plasma samples.

A further data set has as its system Male Sprague-Dawley rats. The data set is described as follows: 5-HT2A/2C/1A-mediated behaviors, locomotor activity and body temperature in rats. Format: in vivo, rat. The method, then: Forty (40) male Sprague-Dawley rats were used as test subjects in this study. Animals were dosed with vehicle (IP), one of 3 doses of compound 2-2 (3 mg/kg, 10 mg/kg, 30 mg/kg IP) or psilocybin (1 mg/kg SC) and, following the appropriate pre-treatment time, were placed in locomotor activity boxes and continuously monitored for a 1 hr period with data collected into 10-minute time bins. Animals were visually assed for overt behavioral signs, including biomarkers for 5-HT2A receptor target engagement (i.e. wet dog shakes, back muscle contractions and stereotypic behaviors), 5-HT2C receptor activation (yawning, penile grooming), and 5-HT1A behaviors (forepaw treading, hindlimb abduction). Additional behavioral and somatic signs characteristic of 5-HT syndrome (i.e. tremor, salivation, flat body posture) also were measured. Core body temperature change was determined at 0 hr (pre-dose), 1 hr, and 2 hr. Simultaneously, the spontaneous locomotor activity of the rats was measured using automated Med Associates activity test chambers. Activity data collected included total distance travelled, rearing counts, and ambulatory episodes. LMA was measured for a total of 2 hours (i.e. the first hour to include visual assessments of behavioral signs, and the second hour the animals will not be assessed for behavioral signs) with data collected into 10 minute time bins. The tracking arena measured 17″ W×17″ L×12″ H, sensor bars were secured 1″ above the floor to track distance travelled, and a second set of sensor bars were placed ˜5″ above the floor to measure vertical movement and rearing activity. The parameters set on the tracking software were as follows: resolution −50 ms, box size −4 beams, resting delay −500 ms, and ambulatory trigger −3.
Table 14 outlines receptor activity and related behavioral and/or physiological measures.

Where [2] appears, read: 5-HT1A agonism, 3, 10, 30 mg/kg IP.
Setting [3] is: 5-HT2C agonism, 3, 10, 30 mg/kg IP.
Where [4] appears, read: excess 5-HT agonism (5-HT syndrome), 3, 10, 30 mg/kg IP.

T1 sequence (P41595 whole entry): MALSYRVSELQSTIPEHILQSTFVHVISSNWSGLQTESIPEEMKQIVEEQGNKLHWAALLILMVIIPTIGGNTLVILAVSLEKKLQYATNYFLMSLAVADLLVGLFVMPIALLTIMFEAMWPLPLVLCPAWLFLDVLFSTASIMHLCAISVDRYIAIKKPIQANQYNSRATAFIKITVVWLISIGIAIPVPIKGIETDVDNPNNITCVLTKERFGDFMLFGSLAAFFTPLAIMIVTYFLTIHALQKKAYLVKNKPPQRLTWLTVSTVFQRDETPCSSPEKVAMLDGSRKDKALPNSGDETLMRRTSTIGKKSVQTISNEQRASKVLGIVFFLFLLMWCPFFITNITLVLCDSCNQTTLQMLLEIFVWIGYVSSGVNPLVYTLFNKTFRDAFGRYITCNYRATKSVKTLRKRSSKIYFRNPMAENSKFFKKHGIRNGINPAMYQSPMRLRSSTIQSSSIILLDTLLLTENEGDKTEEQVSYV

Take `COc1ccc(OC)c(CCNCc2cc(C)cc(F)c2)c1` [Compound 2-2, 2-(2,5-dimethoxyphenyl)-N-(3-fluoro-5-methylbenzyl)ethan-1-amine]: the IC50 worked out at 321 nM at 5-HT2B and 20.8 nM at 5-HT2A receptor. Moreover, the Max % inhibition on 5-HT2B is listed as 99.56%. Moreover, the Ki on 5-HT2A receptor (Ki, Mean (Mouse), mouse frontal cortical tissue) turned out to be 9.6 nM. Further, the concentration at 15 min came to 182 ng/g in data set [1] (brain, 1 mg/kg, 1 mg/kg IP, read-out: Terminal Brain Conc (ng/g) at 15 min, Mean); 0.01 µM in data set [1] (brain, 1 mg/kg, 1 mg/kg IP, read-out: Terminal Brain Free Concentration (uM) at 15 min, Mean); 0.6 µM in data set [1] (brain, 1 mg/kg, 1 mg/kg IP, read-out: Terminal Brain Total Concentration (uM) at 15 min, Mean); 0.039 µM in data set [1] (brain, 3 mg/kg, 3 mg/kg IP, read-out: Terminal Brain Free Concentration (uM) at 15 min, Mean); 3280 ng/g in data set [1] (brain, 10 mg/kg, 10 mg/kg IP, read-out: Terminal Brain Conc (ng/g) at 15 min, Mean); 0.175 µM in data set [1] (brain, 10 mg/kg, 10 mg/kg IP, read-out: Terminal Brain Free Concentration (uM) at 15 min, Mean). For the same molecule, the concentration at 15 min in data set [1] (brain, 10 mg/kg, 10 mg/kg IP, read-out: Terminal Brain Total Concentration (uM) at 15 min, Mean) amounted to 10.8 µM; in data set [1] (plasma, 1 mg/kg, 1 mg/kg IP, read-out: Terminal Plasma Conc (ng/mL) at 15 min, Mean), 60.1 ng/mL; in data set [1] (plasma, 1 mg/kg, 1 mg/kg IP, read-out: Terminal Plasma Free Concentration (uM) at 15 min, Mean), 0.016 µM; in data set [1] (plasma, 1 mg/kg, 1 mg/kg IP, read-out: Terminal Plasma Total Concentration (uM) at 15 min, Mean), 0.2 µM; in data set [1] (plasma, 3 mg/kg, 3 mg/kg IP, read-out: Terminal Plasma Free Concentration (uM) at 15 min, Mean) it was 0.082 µM; in data set [1] (plasma, 10 mg/kg, 10 mg/kg IP, read-out: Terminal Plasma Conc (ng/mL) at 15 min, Mean), 1020 ng/mL. For the same molecule, the concentration at 15 min in data set [1] (plasma, 10 mg/kg, 10 mg/kg IP, read-out: Terminal Plasma Free Concentration (uM) at 15 min, Mean) worked out at 0.277 µM; in data set [1] (plasma, 10 mg/kg, 10 mg/kg IP, read-out: Terminal Plasma Total Concentration (uM) at 15 min, Mean), 3.38 µM. Also, the “distance travelled during the first 20 minutes of the 2 hour test” value in the data set on Male Sprague-Dawley rats (30 mg/kg IP) is “decreased”. Moreover, the total ambulatory episodes entry in the data set with Male Sprague-Dawley rats (30 mg/kg IP) is “decreased”. Also, in the data set on Male Sprague-Dawley rats (30 mg/kg IP), the total rearing counts entry was “decreased”. For the same molecule, the total distance travelled result in the data set with Male Sprague-Dawley rats (3, 10, 30 mg/kg IP, 2 hour test) is reported as “did not affect”. Also, the Flat body posture entry in the data set with Male Sprague-Dawley rats (5-HT1A agonism / excess 5-HT agonism, 30 mg/kg IP (highest dose tested), 30 mg/kg) was “induced flat body posture; also recorded: Significant Increase”. Also, the “Forepaw treading (FPT)” value with Male Sprague-Dawley rats (setting [2]) was “No effect”. Further, the “Hindlimb abduction (HLA)” value in the data set with Male Sprague-Dawley rats (setting [2]) is “No effect”. Also, the “Penile grooming (PG)” value in the data set with Male Sprague-Dawley rats (setting [3]) is “No effect”. Moreover, the Yawning result with Male Sprague-Dawley rats (setting [3]) was “No effect”. Besides, the Salivation entry in the data set with Male Sprague-Dawley rats (setting [4]) is “No effect”. Besides, the Tremor result in the data set with Male Sprague-Dawley rats (setting [4]) is listed as “No effect”. In addition, the Locomotor activity result in the data set on Male Sprague-Dawley rats (mixed/non-selective, 30 mg/kg IP) is “Significant decrease”.

In the case of `COc1ccc(OC)c(CCNCc2cc(C)cc(Cl)c2)c1` [Compound 2-1, N-(3-chloro-5-methylbenzyl)-2-(2,5-dimethoxyphenyl)ethan-1-amine], at 5-HT2B, the IC50 worked out at 84.9 nM and the Max % inhibition was found to be 102.5%.
